Data on three molecules can be found in patent publication US20100280031A1, “LIPID FORMULATION OF APOPTOSIS PROMOTER” (priority 2009, published 2010).

Read-outs that look alike come from different tables or passages of the source.

A short description of data set [1]: PK study of ABT-263 bis-HCl liquid-filled capsules in non-fasted dogs. It is filed as in vivo, beagle dogs.
The nature of another data set: solubility in water. The note with it: pH 2. From the text:
It will be recognized that aqueous solubility of many compounds is pH-dependent; in the case of such compounds the solubility of interest herein is at a physiologically relevant pH, for example a pH of about 1 to about 8.

A short description of data set [2]: PK study of ABT-263 free base formulations in rats. It is filed as in vivo, Sprague-Dawley rats. To be noted: fasted rats, 5 mg/kg oral. Here is the method: (§1) Serial heparinized blood samples were obtained from a tail vein of each animal prior to dosing and 0.25, 0.5, 1, 1.5, 2, 3, 4, 6, 8 and 24 hours after administration.
Data set [3] can be described thus: PK study of ABT-263 free base formulations in fasted dogs. The note with it: oral. In kind it is in vivo, beagle dogs. Here is the method: Serial heparinized blood samples were obtained from a jugular vein of each animal prior to dosing and 0.25, 0.5, 1, 1.5, 2, 3, 4, 6, 9, 12, 15 and 24 hours after administration. […] The bioavailability was calculated as the dose-normalized AUC0-∞ from oral dosing divided by the corresponding value derived from i.v. (intravenous) dosing, administered as a slow bolus to a cephalic vein.

Data set [4] can be described thus: food-effect PK study of ABT-263 free base formulation in dogs. It is filed as in vivo, beagle dogs. The note with it: 10 mg/kg oral, 20 mg/ml, carrier PEG 400/Phosal 50 PG/DMSO (60:30:10).
The nature of data set [5]: PK study of ABT-263 free base liquid-filled capsules in non-fasted dogs. It is filed as in vivo, beagle dogs.
A short description of data set [6]: Phase 1 clinical PK study of ABT-263 bis-HCl formulation (Formulation C). It is filed as in vivo, human. The note with it: humans. Here is the method: The formulation was prepared immediately or shortly (not more than about one month) prior to oral administration.
The study had several cycles, depending on the subjects' response to the drug.
The dose doubled until one grade 3 or two grade 2 toxicities occurred, after which dose escalated in 25-40% increments. Platelet levels were monitored and reviewed to inform dose escalation decisions.
Blood and plasma samples were protected from direct sunlight during collection, processing and storage. The timing of blood collections took priority over other scheduled study activities except for dosing. The order of blood collections was maintained to the minute such that the time intervals relative to the preceding dosing were the same for all subjects.
Blood samples were collected by venipuncture into 3-ml evacuated potassium EDTA-containing collection tubes during Cycle 1 Day −3, prior to dosing (0 hour) and at 0.5, 1, 2, 3, 4, 6, 8, 24, 48 and 72 (Day 1, predose sample) hours after dosing; Day 1, at 0.5, 1, 2, 3, 4, 6, 8 and 24 (Day 2, pre-dose sample) hours after dosing; Day 14, prior to dosing (0 hour) and at 0.5, 1, 2, 3, 4, 6 and 8 hours after dosing. Additional blood samples were collected at 0 hour (pre-dose) on Day 14, Cycle 2 through Cycle 6. Sufficient blood was collected to provide approximately 1 ml plasma from each sample. A total of 27 blood samples (approximately 81 ml) were collected per subject for pharmacokinetic analysis during Cycle 1 and one additional blood sample per subject per cycle, up to Cycle 6.

Data set [7] in a line: PK study of ABT-737 formulations in rats. It is filed as in vivo, Sprague-Dawley rats. The note with it: for AUC(0-inf) / bioavailability / Cmax: rats, 5 mg/kg oral; for bioavailability: read-out: Bioavailability (F %). Here is the method:
as §1
Analysis was performed on a Sciex API3000™ biomolecular mass analyzer with a heated nebulizer interface. ABT-737 and internal standard peak areas were determined using Sciex MacQuan™ software. The plasma drug concentration of each sample was calculated by least squares linear regression analysis (non-weighted) of the peak area ratio (parent/internal standard) of the spiked plasma standards versus concentration. The plasma concentration data were submitted to multi-exponential curve fitting using WinNonlin 3 (Pharsight).
The area under the plasma concentration-time curve from 0 to t hours (time of the last measured plasma concentration) after dosing (AUC0-t) was calculated using the linear trapezoidal rule for the plasma concentration-time profiles. The residual area extrapolated to infinity, determined as the final measured plasma concentration (Ct) divided by the terminal elimination rate constant (β), was added to AUC0-t to produce the total area under the curve (AUC0-∞). The bioavailability was calculated as the dose-normalized AUC0-∞ from oral dosing divided by the corresponding value derived from i.v. (intravenous) dosing, administered as a slow bolus to a jugular vein under light ether anesthetic.

Setting [8] is: carrier Labrasol/Tween 20 (70:30), 50 mg/dog.
Setting [9] is: carrier Phosal 53 MCT, 50 mg/dog.
The mark [10] stands for this setting: carrier Phosal 53 MCT/Labrasol (70:30), 50 mg/dog.
Setting [11] is: carrier Phosal 53 MCT/Tween 20 (80:20), 50 mg/dog.
Where [12] appears, read: carrier PEG 400/DMSO (90:10), 2 mg/ml.
The mark [13] stands for this setting: carrier PEG 400/Phosal 50 PG/DMSO (60:30:10), 5 mg/ml.
Setting [14] is: carrier PEG 400/DMSO (90:10), 2.5 mg/kg, 5 mg/ml.
Setting [15] is: carrier PEG 400/DMSO (90:10), 5 mg/kg, 10 mg/ml.
[16] abbreviates: carrier PEG 400/DMSO (90:10), 10 mg/kg, 20 mg/ml.
Where [17] appears, read: carrier PEG 400/Phosal 50 PG/DMSO (60:30:10), 5 mg/kg, 10 mg/ml.
Setting [18] is: carrier PEG 400/Phosal 50 PG/DMSO (60:30:10), 10 mg/kg, 20 mg/ml.
Setting [19] is: liquid-filled capsules, carrier Capmul PG-8, 50 mg/dog.
Where [20] appears, read: liquid-filled capsules, carrier Capmul PG-8/Cremophor EL (90:10), 50 mg/dog.
Where [21] appears, read: liquid-filled capsules, carrier Phosal 53 MCT/PEG 400 (70:30), 50 mg/dog.
[22] abbreviates: liquid-filled capsules, carrier oleic acid/PEG 400/Cremophor EL (80:10:10), 50 mg/dog.
Where [23] appears, read: oral, carrier PEG 400/Phosal 50 PG/DMSO (60:30:10), 20 mg/kg.
[24] abbreviates: 315 mg/day, Day 14, non-fasting.
[25] abbreviates: Sprague-Dawley, rat, plasma, po, 5 mg/kg, carrier D5W/PG/DMSO/Tween (70:20:5:5), 5 mg/ml.
Setting [26] is: Sprague-Dawley, rat, plasma, po, 5 mg/kg, carrier Imwitor 380 (unneutralized)/ethanol (95:5), 10 mg/ml.
Setting [27] is: Sprague-Dawley, rat, plasma, po, 5 mg/kg, carrier Phosal 50 PG/ethanol (90:10), 50 mg/ml.
Where [28] appears, read: Sprague-Dawley, rat, plasma, po, 5 mg/kg, carrier Phosal 53 MCT/ethanol (90:10), 10 mg/ml.

In the case of `CC1(C)CCC(c2ccc(Cl)cc2)=C(CN2CCN(c3ccc(C(=O)NS(=O)(=O)c4ccc(N[C@H](CCN5CCOCC5)CSc5ccccc5)c(S(=O)(=O)C(F)(F)F)c4)cc3)CC2)C1.Cl.Cl` [ABT-263 bis-HCl], the “Bioavailability (F %)” value in data set [1] (carrier Labrasol, […]) is listed as 29.4%; in data set [1] (setting [8]), 39.0%; in data set [1] (setting [9]), 49.0%; in data set [1] (setting [10]), 38.5%; in data set [1] (carrier Phosal 53 MCT/PEG 400 (70:30), […]), 40.8%; in data set [1] (setting [11]) it was 48.5%. Moreover, the “AUC0-∞” value in data set [1] (setting [8]) was 84800 ng·h/mL; in data set [1] (setting [9]), 89700 ng·h/mL; in data set [1] (setting [10]), 94300 ng·h/mL; in data set [1] (setting [11]), 89900 ng·h/mL. Moreover, the Cmax in data set [1] (setting [8]) came out at 10310 ng/mL; in data set [1] (setting [9]), 9250 ng/mL; in data set [1] (setting [10]), 15830 ng/mL; in data set [1] (setting [11]), 14020 ng/mL.

Turning to `CC1(C)CCC(c2ccc(Cl)cc2)=C(CN2CCN(c3ccc(C(=O)NS(=O)(=O)c4ccc(N[C@H](CCN5CCOCC5)CSc5ccccc5)c(S(=O)(=O)C(F)(F)F)c4)cc3)CC2)C1` [ABT-263], the solubility in water result in the data set “solubility in water” is recorded as “less than 4 μg/ml”. Also, the “AUC0-∞” value in data set [2] (setting [12]) came to 7530 ng·h/mL; in data set [2] (setting [13]) it was 9960 ng·h/mL; in data set [3] (setting [14]), 27100 ng·h/mL; in data set [3] (setting [15]), 39800 ng·h/mL; in data set [3] (setting [16]), 58300 ng·h/mL; in data set [3] (setting [17]), 115100 ng·h/mL. Further, the “AUC0-∞” value in data set [3] (setting [18]) came to 173900 ng·h/mL; in data set [4] (fasted dogs), 156100 ng·h/mL; in data set [4] (non-fasted dogs) it was 255600 ng·h/mL; in data set [5] (setting [19]) it was 59100 ng·h/mL; in data set [5] (setting [20]), 63300 ng·h/mL; in data set [5] (setting [21]) it was 119800 ng·h/mL. In addition, the “AUC0-∞” value in data set [5] (setting [22]) turned out to be 43800 ng·h/mL; in data set [5] (setting [23]), 537200 ng·h/mL. The “Bioavailability (F %)” value in data set [2] (setting [12]) is recorded as 21.6%; in data set [2] (setting [13]), 28.5%; in data set [3] (setting [15]) it was 16.5%; in data set [3] (setting [16]) it was 12.1%; in data set [3] (setting [18]) it was 36.0%; in data set [4] (fasted dogs, 10 mg/kg), 32.3%. Besides, the “Bioavailability (F %)” value in data set [4] (non-fasted dogs) is reported as 52.9%; in data set [5] (setting [19]) it was 24.9%; in data set [5] (setting [20]), 27.7%; in data set [5] (setting [21]), 53.0%; in data set [5] (setting [22]) it was 20.5%; in data set [5] (setting [23]) it was 51.3%. Moreover, the Cmax was 670 ng/mL in data set [2] (setting [12]); 1050 ng/mL in data set [2] (setting [13]); 3670 ng/mL in data set [3] (setting [14]); 6750 ng/mL in data set [3] (setting [15]); 8460 ng/mL in data set [3] (setting [16]); 13220 ng/mL in data set [3] (setting [17]). The Cmax is 21600 ng/mL in data set [3] (setting [18]); 20300 ng/mL in data set [4] (fasted dogs); 23500 ng/mL in data set [4] (non-fasted dogs); 6400 ng/mL in data set [5] (setting [19]); 10610 ng/mL in data set [5] (setting [20]); 21500 ng/mL in data set [5] (setting [21]). Also, the values for the Cmax in data set [5] (setting [22]) and in data set [5] (setting [23]) were 6840 ng/mL and 47300 ng/mL, respectively. Also, in data set [6] (setting [24]), the “plasma concentration at steady state (peak)” value was “about 5.5 μg/ml”. In addition, the “plasma concentration at steady state (trough)” value in data set [6] (setting [24]) was “about 3 μg/ml”. Besides, the Tmax result in data set [6] (single 315 mg dose, both fasting and non-fasting (FIG. 2)) was “around 8 hours”.

The AUC(0-inf) is the area under the concentration-time curve extrapolated to infinity. Low values mean low exposure, high ones high exposure. One may read the bioavailability as dose-corrected exposure relative to a reference, in per cent. Regarding `CN(C)CC[C@H](CSc1ccccc1)Nc1ccc(S(=O)(=O)NC(=O)c2ccc(N3CCN(Cc4ccccc4-c4ccc(Cl)cc4)CC3)cc2)cc1[N+](=O)[O-]` [ABT-737, N-(4-(4-((4′-chloro-(1,1′-biphenyl)-2-yl)methyl)piperazin-1-yl)benzoyl)-4-(((1R)-3-(dimethylamino)-1-((phenylsulfanyl)methyl)propyl)amino)-3-nitrobenzene-sulfonamide], the AUC(0-inf) was determined as 230 ng·h/mL in data set [7] (setting [25]), 150 ng·h/mL in data set [7] (setting [26]), 60 ng·h/mL in data set [7] (setting [27]) and 130 ng·h/mL in data set [7] (setting [28]). Besides, the bioavailability in data set [7] (setting [25]) was found to be 5.9%; in data set [7] (setting [26]), 3.9%; in data set [7] (setting [27]), 1.5%; in data set [7] (setting [28]), 3.3%. Further, the Cmax in data set [7] (Sprague-Dawley, rat, plasma, po, 5 mg/kg, carrier Imwitor 380 (unneutralized)/ethanol (95:5), 10 mg/ml, read-out: Cmax) stood at 29 ng/mL; in data set [7] (Sprague-Dawley, rat, plasma, po, 5 mg/kg, carrier Phosal 50 PG/ethanol (90:10), 50 mg/ml, read-out: Cmax) it was 24 ng/mL; in data set [7] (Sprague-Dawley, rat, plasma, po, 5 mg/kg, carrier Phosal 53 MCT/ethanol (90:10), 10 mg/ml, read-out: Cmax), 28 ng/mL; in data set [7] (carrier D5W/PG/DMSO/Tween (70:20:5:5), 5 mg/ml), 32 ng/mL. In data set [7] (regardless of the carrier), the Bioavailability in rats result was “extremely low”.
